Measured values: article PMC10458471, “Electrophysiological Assessment of Newly Synthesized 2,3-Benzodiazepine Derivatives for Inhibiting the AMPA Receptor Channel” (Molecules, 2023)
pIC50: −log10 of the molar value. Where two headings read alike, the source gives them in different places.

Key:
GluA1 = target: T1, GluA1 (Rattus norvegicus, UniProt P19490); assay: Whole-cell patch-clamp recording of homomeric GluA1 AMPAR expressed in HEK293T cells; assay type: cell-based
T1 construct: expressed in transfected cells; host or cells: HEK293T
Experimental: (§1) For the DNA preparation, the QIAGEN Plasmid Mini Kit was used to prepare up to 20 µg of high-copy plasmid DNA [30]. All AMPAR subunits utilized in this study included the flip isoform received from S. F. Heinemann (Salk Institute, La Jolla, CA, USA) and sub-cloned in pRK for expression in Human Embryonic Kidney Cells 293 (HEK293T). The human embryonic kidney (HEK293T) cells were obtained from Sigma, Taufkirchen, Germany, and we only used the HEK293T cell line due to their ease of growth and transfection and wide utilization in cell culture. For the transfection, we used the constructs GluA1, GluA2, GluA2/3, and GluA1/2, along with the GFP-expressing construct, as described in our previous work. The transfection reagents utilized were jetPRIME (Polyplus: New York, NY, USA) or Lipofectamine 2000 (Invitrogen; San Diego, CA, USA). The highly fluorescent cells were identified and selected for recording. The selected cells were seeded in Dulbecco Modified Eagle Medium (DMEM) (Sigma, Roedermark, Germany) containing 10% FBS, 0.1 mg/mL streptomycin, and 1 mM sodium pyruvate (Biological Industries; Beit-Haemek, Israel). The cells were incubated at 37 °C with 5% CO2 added to the medium and subcultured twice a week until they reached passage #20. Following a day and a half, the cells were replated on coverslips covered with Laminin (1 mg/mL; Sigma, Roedermark, Germany) for electrophysiological recordings. Our previous work has detailed the DNA preparation, cDNA transient transfection, and cell culture of HEK293T [30, 31, 32, 33].
(§2) After that, a patch was placed in front of a rapid perfusion system comprised of a theta tube flow pipe mounted on a piezoelectric translator that was used to wash the cell continuously from one barrel while the other supplied the compound of interest to the cell. Recordings were conducted 36–48 h after transfection at 22 °C, with a membrane potential of −60 mV. Currents were amplified using an integrated patch amplifier (IPA, Sutter Instruments, Novato, CA, USA), filtered at 2 kHz, and digitized at 10 kHz using SutterPatch Software v. 1.1.1 [46]. […] The extracellular medium contained (in mM): 150 NaCl, 2.8 KCl, 0.5 MgCl2, 2 CaCl2, and 10 HEPES, pH 7.4 adjusted with NaOH. The holding potential was typically −60 mV. The sample size was determined to be eight viable cells to calculate the mean inhibition of the derivative of interest. The solution exchange time (10–90% to peak) was estimated at […] using open-tip control at the end of a recording. Inhibition was calculated by comparing the current observed when the cell was supplied with glutamate alone and when the same cell was supplied with both glutamate and the 2,3-BDZ compounds. The initial tube containing only glutamate was reintroduced to the cell to ensure cellular safety and authenticate the antagonist’s findings. This step ensured that the glutamate-induced current observed before the administration of the antagonist was nearly indistinguishable from the current observed after administration.
(§3) The experiment served two purposes: first, determining the whole-cell current amplitude ratio in the absence and presence of the compounds (A/AI) to derive a constant inhibitory value independent of the rate measurement. Second, as an independent control method, a fast exchange solution flow methodology was employed using piezoelectric actuators, providing the fastest exchange solution with open-tip current rise times in the 100–300 μs range to assess the amplitude of the whole-cell current. Detailed data analysis of this process is provided in the supporting information (Tables S1–S4).
(§4) The data acquired were analyzed using Igor Pro7 (Wave Metrics, Inc., Portland, OR, USA). Receptor desensitization (τw des) and deactivation rates were estimated by fitting the current decay starting from 95% of the peak to the baseline current using a double exponential formulation. […]

GluA1/2 = target: T2, GluA1/2 (Rattus norvegicus, UniProt P19490+P19491); assay: Whole-cell patch-clamp recording of heteromeric GluA1/2 AMPAR expressed in HEK293T cells; assay type: cell-based
T2 construct: expressed in transfected cells; host or cells: HEK293T
Experimental: as §1, §2, §3, §4

GluA2 = target: T3, GluA2 (Rattus norvegicus, UniProt P19491); assay: Whole-cell patch-clamp recording of homomeric GluA2 AMPAR expressed in HEK293T cells; assay type: cell-based
T3 construct: expressed in transfected cells; host or cells: HEK293T
Experimental: as §1, §2, §3, §4

GluA2/3 = target: T4, GluA2/3 (Rattus norvegicus, UniProt P19491+P19492); assay: Whole-cell patch-clamp recording of heteromeric GluA2/3 AMPAR expressed in HEK293T cells; assay type: cell-based
T4 construct: expressed in transfected cells; host or cells: HEK293T
Experimental: as §1, §2, §3, §4

AMPA receptor subunits = assay: Whole-cell patch-clamp recording, statements over all tested AMPAR subunits (GluA1, GluA1/2, GluA2, GluA2/3) in HEK293T cells; assay type: cell-based; settings: 16 µM compound
Experimental: as §1, §2, §3, §4

[1] = Solubility observation during synthesis/characterisation; assay type: physicochemical; settings: qualitative, NMR in DMSO-d6 could not be run
Experimental: The synthesis of target compounds is carried out according to the sequence of reactions detailed in Scheme 1. SnCl4-catalyzed Friedel-Craft acylation of ethyl 3,4-methylenedioxy phenylacetate 1 with either 2-fluoro-4-nitrobezoylchloride 2a or 3-methoxy-4-nitrobenzoyl chloride 2b in dry CH2Cl2 yields the required ketoester intermediates 3a and 3b in 40% and 48% yields, respectively. […] Acetic acid promoted a cascade reaction (imine formation followed by cyclization) of ethyl 4,5-(methylenedioxy)-2-[…] with hydrazine hydrate in ethanol afforded 2,3-BZD-4 in a 33% yield. High yield and purity of 2,3-BZD-1 were achieved via Pd-catalyzed hydrogenation of the nitro group in 2,3-BZD-4 in methanol. The generated compounds have physical and spectral (1H-NMR) data consistent with their proposed structures.
5% Pd/C (50 mg) was added to a solution containing 1-(2-floro-4-nitrophenyl)-7,8-(methylenedioxy)-3,5-dihydro-4H-2,3-benzodiazepin-4-one (2,3-BDZ-3) (64.80 mg, 0.19 mmol) in methanol (5 mL) and formic acid (2 mL). After 48 h of stirring at ambient temperature in a hydrogen atmosphere, the Pd/C was filtered out, and the solvent was removed under pressure. The resultant residue was washed with methanol and then with diethyl ether. […]

[2] = 16 µM compound, 500 ms glutamate
[3] = 10 mM glutamate + 16 µM compound, -60 mV, pH 7.4, 22 °C, mean±SEM, n=8
[4] = 10 mM glutamate, 16 µM compound, n=8
[5] = 1 ms 10 mM glutamate + 16 µM compound, n=8
[6] = 500 ms 10 mM glutamate + 16 µM compound, n=8
[7] = log of IC50, read-out: Log IC50 (converted)
[8] = normalized peak current, -60 mV, pH 7.4, 22 °C, read-out: IC50
[9] = washout/recovery, glutamate alone after compound, n=8

T1 sequence (P19490 19-907 isoform P19490-2 limits assumed): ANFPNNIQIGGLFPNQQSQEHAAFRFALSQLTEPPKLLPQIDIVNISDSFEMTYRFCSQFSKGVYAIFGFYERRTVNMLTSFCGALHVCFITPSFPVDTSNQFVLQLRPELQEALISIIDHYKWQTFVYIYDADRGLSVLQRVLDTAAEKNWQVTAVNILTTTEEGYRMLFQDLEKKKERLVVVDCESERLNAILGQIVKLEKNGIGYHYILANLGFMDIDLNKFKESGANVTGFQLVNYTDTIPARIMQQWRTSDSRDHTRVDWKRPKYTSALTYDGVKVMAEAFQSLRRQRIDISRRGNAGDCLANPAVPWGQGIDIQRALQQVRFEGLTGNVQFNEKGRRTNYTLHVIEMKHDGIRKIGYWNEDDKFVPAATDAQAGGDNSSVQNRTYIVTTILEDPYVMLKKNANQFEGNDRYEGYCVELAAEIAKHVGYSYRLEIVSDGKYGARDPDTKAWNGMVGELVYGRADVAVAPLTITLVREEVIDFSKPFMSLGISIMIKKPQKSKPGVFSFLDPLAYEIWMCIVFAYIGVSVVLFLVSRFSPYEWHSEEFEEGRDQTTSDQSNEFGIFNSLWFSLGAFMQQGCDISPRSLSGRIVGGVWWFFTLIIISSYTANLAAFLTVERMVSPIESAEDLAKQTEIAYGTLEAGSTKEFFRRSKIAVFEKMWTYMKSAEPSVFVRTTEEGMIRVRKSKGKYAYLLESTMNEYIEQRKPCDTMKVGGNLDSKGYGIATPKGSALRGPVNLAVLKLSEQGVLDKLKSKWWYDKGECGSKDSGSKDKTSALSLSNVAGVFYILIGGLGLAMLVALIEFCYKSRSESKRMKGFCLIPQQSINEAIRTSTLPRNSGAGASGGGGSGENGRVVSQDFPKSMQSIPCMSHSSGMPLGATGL
T2 sequence (P19490 19-907 isoform P19490-2 limits assumed): as above
T2 sequence (P19491 22-883 isoform P19491-2 limits assumed): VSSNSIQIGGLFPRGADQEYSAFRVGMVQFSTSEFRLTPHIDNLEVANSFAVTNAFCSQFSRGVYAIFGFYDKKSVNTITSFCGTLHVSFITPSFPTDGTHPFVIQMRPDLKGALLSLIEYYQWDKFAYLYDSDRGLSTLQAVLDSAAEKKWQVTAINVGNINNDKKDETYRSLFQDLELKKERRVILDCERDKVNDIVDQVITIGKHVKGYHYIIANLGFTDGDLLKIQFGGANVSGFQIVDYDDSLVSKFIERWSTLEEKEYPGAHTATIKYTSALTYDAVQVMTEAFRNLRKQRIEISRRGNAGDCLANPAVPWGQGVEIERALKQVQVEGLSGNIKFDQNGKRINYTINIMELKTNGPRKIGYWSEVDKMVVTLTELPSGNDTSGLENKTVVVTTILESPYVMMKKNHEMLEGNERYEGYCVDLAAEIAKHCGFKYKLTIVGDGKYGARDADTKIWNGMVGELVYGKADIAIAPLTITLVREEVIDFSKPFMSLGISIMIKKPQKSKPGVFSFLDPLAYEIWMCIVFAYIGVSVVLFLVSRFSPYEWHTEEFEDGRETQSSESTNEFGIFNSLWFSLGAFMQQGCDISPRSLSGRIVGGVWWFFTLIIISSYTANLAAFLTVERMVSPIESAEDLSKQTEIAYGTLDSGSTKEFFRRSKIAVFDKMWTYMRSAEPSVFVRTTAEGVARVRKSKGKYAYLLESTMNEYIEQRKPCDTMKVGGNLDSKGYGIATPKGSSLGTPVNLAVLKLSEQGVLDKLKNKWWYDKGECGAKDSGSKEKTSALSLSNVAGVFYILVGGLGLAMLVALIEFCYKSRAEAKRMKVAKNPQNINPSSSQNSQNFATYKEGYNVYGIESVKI
T3 sequence (P19491 22-883 isoform P19491-2 limits assumed): as above
T4 sequence (P19491 22-883 isoform P19491-2 limits assumed): as above
T4 sequence (P19492 23-888 isoform P19492-2 limits assumed): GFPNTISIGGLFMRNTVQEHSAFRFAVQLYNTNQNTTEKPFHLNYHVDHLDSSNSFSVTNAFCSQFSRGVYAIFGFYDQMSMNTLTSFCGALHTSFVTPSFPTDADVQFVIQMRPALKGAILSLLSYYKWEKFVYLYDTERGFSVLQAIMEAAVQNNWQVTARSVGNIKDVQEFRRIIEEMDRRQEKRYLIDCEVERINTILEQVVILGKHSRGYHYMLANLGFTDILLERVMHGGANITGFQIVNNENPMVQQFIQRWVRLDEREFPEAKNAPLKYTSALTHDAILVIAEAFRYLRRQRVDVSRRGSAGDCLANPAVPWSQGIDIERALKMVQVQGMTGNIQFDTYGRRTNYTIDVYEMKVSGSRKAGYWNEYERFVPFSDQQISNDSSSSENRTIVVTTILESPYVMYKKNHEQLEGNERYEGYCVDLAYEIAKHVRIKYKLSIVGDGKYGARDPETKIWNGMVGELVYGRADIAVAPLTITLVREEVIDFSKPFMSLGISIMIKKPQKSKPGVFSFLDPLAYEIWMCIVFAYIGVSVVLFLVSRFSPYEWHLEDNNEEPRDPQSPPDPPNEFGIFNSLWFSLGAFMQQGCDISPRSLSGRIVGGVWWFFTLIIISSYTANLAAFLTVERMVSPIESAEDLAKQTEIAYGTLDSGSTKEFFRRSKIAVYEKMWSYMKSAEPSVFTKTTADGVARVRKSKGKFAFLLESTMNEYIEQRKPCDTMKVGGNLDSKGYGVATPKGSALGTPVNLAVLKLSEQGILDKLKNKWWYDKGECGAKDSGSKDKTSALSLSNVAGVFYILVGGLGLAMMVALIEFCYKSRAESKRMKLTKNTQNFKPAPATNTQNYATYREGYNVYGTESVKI

- Amplitude with compound (GluA1; [3]): 85±7.0 pA
- A/AI (current amplitude ratio without/with compound) (GluA1; [4]): 11.08±1.0
- t deact (weighted deactivation time constant) (GluA1; [5]): 6.3 ± 0.4 ms
- IC50 (GluA1; [7]): 3.24 µM
- pIC50 (GluA1; [8]): 5.49
- Amplitude, applying glutamate alone after compound (GluA1; [9]): 935±39 pA
- Amplitude with compound (GluA1/2; [3]): 51±7.0 pA
- A/AI (current amplitude ratio without/with compound) (GluA1/2; [4]): 11.21±1.0
- t deact (weighted deactivation time constant) (GluA1/2; [5]): 6.7 ± 0.6 ms
- IC50 (GluA1/2; [7]): 3.02 µM
- pIC50 (GluA1/2; [8]): 5.52
- Amplitude, applying glutamate alone after compound (GluA1/2; [9]): 575±35 pA
- Amplitude with compound (GluA2; [3]): 108±9.0 pA
- A/AI (current amplitude ratio without/with compound) (GluA2; [4]): 12.31±1.0
- t deact (weighted deactivation time constant) (GluA2; [5]): 8.7 ± 0.6 ms
- IC50 (GluA2; [7]): 3.02 µM
- pIC50 (GluA2; [8]): 5.52
- Amplitude, applying glutamate alone after compound (GluA2; [9]): 1322±33 pA
- Amplitude with compound (GluA2/3; [3]): 49±4 pA
- A/AI (current amplitude ratio without/with compound) (GluA2/3; [4]): 12.09±1.0
- t deact (weighted deactivation time constant) (GluA2/3; [5]): 8.1 ± 0.7 ms
- IC50 (GluA2/3; [7]): 3.09 µM
- pIC50 (GluA2/3; [8]): 5.51
- Amplitude, applying glutamate alone after compound (GluA2/3; [9]): 589±33 pA
- Solubility (observation) [1]: low solubility
- Solubility (observation) ([1]; listed as 2,3-BZD-1): highly insoluble
SMILES: Nc1ccc(C2=NNC(=O)Cc3cc4c(cc32)OCO4)c(F)c1 [2,3-BDZ-1, 1-(4-Amino-2-fluorophenyl)-7,8-(methylenedioxy)-3,5-dihydro-4H-2,3-benzodiazepin-4-one]
- Reduction of desensitization rate (GluA1; [2]): ~2 fold
- t des (weighted desensitization time constant) (GluA1; [6]): 1.1 ± 0.1 ms
- Reduction of desensitization rate (GluA1/2; [2]): ~2 fold
- t des (weighted desensitization time constant) (GluA1/2; [6]): 2.7 ± 0.2 ms
- Reduction of desensitization rate (GluA2; [2]): 4–5 fold
- t des (weighted desensitization time constant) (GluA2; [6]): 0.6 ± 0.05 ms
- Reduction of desensitization rate (GluA2/3; [2]): 3–4 fold
- t des (weighted desensitization time constant) (GluA2/3; [6]): 0.8 ± 0.08 ms
- Reduction in AMPAR subunit currents (AMPA receptor subunits): 11–12 fold
- Effect on deactivation rate of the AMPAR subunits examined (AMPA receptor subunits; 1 ms glutamate): almost triples
